In publication PMC2784635 (Bioorganic & medicinal chemistry, 2008):

Columns and labels:
plant pathogens = experiment: fungicidal activity on plants; format: in vivo
[1] = biological target: cytochrome bc1 complex (beef heart mitochondria, NADH oxidase) (Bos taurus, UniProt P00157+P13272); experiment: beef heart mitochondrial NADH oxidase assay; format: biochemical; details: for IC50, NADH oxidase: beef heart mitochondria, Z-enamide analogues, Table 5
[2] = tested on: electron transport chain at complex III; details: beef heart mitochondrial respiration assay; cited from earlier work
[3] = simulated sunlight photostability test, thin films on glass slides; format: physicochemical; details: for time for 50% of parent compound being lost / T50 glass slides: thin films on glass slides
several fungi = details: cited from earlier work
[4] = tested on: Plasmopara viticola (vine downy mildew); experiment: glasshouse foliar spray test, vine downy mildew; format: in vivo

SMILES: C/C=C(C)/C=C/C=C/[C@H](OC)[C@@H](C)[C@@H](OC)[C@@H](C)CCc1oc2c(O)c(OC)cc(OC)c2c(=O)c1C [Compound 2, stigmatellin, reference compound]
- fungicidal activity on plants (plant pathogens): very little fungicidal activity
- activity in the NADH oxidase / beef heart mitochondrial respiration assay [1]: quite active

SMILES: COC(=O)CNC(=O)/C=C\C/C=C\NC(=O)/C=C(C)/C=C/[C@H](C)[C@H](OC)[C@H](C)[C@H](/C=C/c1ccccc1)OC [Compound 8, crocacin A]
- inhibition of the electron transport chain at complex III [2]: inhibited the electron transport chain at complex III
- time for 50% of parent compound being lost [3]: 7 min
- inhibition of growth of fungi in vitro (several fungi): inhibited the growth of several fungi in vitro

SMILES: CO[C@H]([C@H](C)[C@H](/C=C/c1ccccc1)OC)[C@@H](C)/C=C/C(C)=C/C(=O)N/C=C\C/C=C\C(=O)NCC(=O)O [Compound 9, crocacin B]
- inhibition of the electron transport chain at complex III [2]: not to be active

SMILES: CO[C@H]([C@H](C)[C@H](/C=C/c1ccccc1)OC)[C@@H](C)/C=C/C(C)=C/C(N)=O [Compound 10, crocacin C]
- inhibition of the electron transport chain at complex III [2]: not to be active

SMILES: COC(=O)CNC(=O)CCC/C=C\NC(=O)/C=C(C)/C=C/[C@H](C)[C@H](OC)[C@H](C)[C@H](/C=C/c1ccccc1)OC [Compound 11, crocacin D, reference compound]
- inhibition of the electron transport chain at complex III [2]: inhibited the electron transport chain at complex III
- T50 glass slides [3]: 0.6 h
- time for 50% of parent compound being lost [3]: 37 min
- inhibition of growth of fungi in vitro (several fungi): inhibited the growth of several fungi in vitro
- activity in the NADH oxidase / beef heart mitochondrial respiration assay [1]: slightly more active than crocacin A

SMILES: CCCCCCCCCCCCC(=O)N/C=C\CCCC(=O)NCC(=O)OC [Compound 12]
- photostability [3]: photostability was unexpectedly reduced
- T50 glass slides [3]: 0.1 h
- fungicidal activity on plants (plant pathogens): no fungicidal activity
- activity in the NADH oxidase / beef heart mitochondrial respiration assay [1]: very active

SMILES: CCCCCCOc1ccc(C(=O)N/C=C\CCCC(=O)NCC(=O)OC)cc1 [Compound 13]
- T50 glass slides [3]: 5 h
- fungicidal activity on plants (plant pathogens): inactive as fungicides
- activity in the NADH oxidase / beef heart mitochondrial respiration assay [1]: very good activity

SMILES: COC(=O)CNC(=O)CCC/C=C\NC(=O)c1ccc(Cc2ccc(Br)cc2)cc1 [Compound 14]
- photostability [3]: greater photostability than the natural product
- T50 glass slides [3]: 12 h

SMILES: CCOc1ccc(Cc2ccc(C(=O)N/C=C\CCCC(=O)NCC(=O)OC)cc2)cc1 [Compound 15]
- photostability [3]: greater photostability than the natural product
- T50 glass slides [3]: 20 h

SMILES: CCc1ccc(Cc2ccc(Cn3c(=O)oc4ccc(OCC(=O)OC)cc43)cc2)cc1 [Compound 18]
- activity on vine downy mildew on plants [4]: no activity

SMILES: COC(=O)COc1ccc2oc(=O)n(Cc3ccc(Cc4ccc(I)cc4)cc3)c2c1 [Compound 19]
- activity on vine downy mildew on plants [4]: no activity

SMILES: CCc1ccc(Cc2ccc(Cn3c(=O)oc4ccc(NCC(=O)OC)cc43)cc2)cc1 [Compound 21]
- IC50, NADH oxidase [1]: Inactive

SMILES: CCc1ccc(Oc2ccc(C(=O)N[C@H]3C[C@H]3CCC(=O)NCC(=O)OC)cc2)cc1 [Compound 24]
- activity in the NADH oxidase / beef heart mitochondrial respiration assay [1]: only very weakly active

SMILES: COC(=O)CNC(=O)CCCc1ccccc1NC(=O)CCCCCCCCCc1ccccc1 [Compound 25]
- activity in the NADH oxidase / beef heart mitochondrial respiration assay [1]: completely inactive
- IC50, NADH oxidase [1]: Inactive
